# Measured values: patent US8530423B2, “Anxiolytic compositions containing αs1-casein-derived peptides” (Universite de Lorraine, priority 2008, dated 2013)
# Read-outs that look alike come from different tables or passages of the source. No end group written: not given here.
# Columns and labels:
# [1] = molecular target: angiotensin-I converting enzyme (Homo sapiens, UniProt P12821); details: literature (MARUYAMA et al.); cited from earlier work
# [2] = literature (ZIOUDROU et al., LOUKAS et al.); cited from earlier work
# rat [3] = details: PCT/EP2007/063863; cited from earlier work
# Wistar rat [4] = assay: Elevated cross maze test; format: in vivo; details: for number of entries into the open arms / time spent in the open arms: p<0.05
# Source text: The elevated cross maze test enables the density of the exploratory behavior in a new aversive situation to be measured [PELLOW et al., 1985 (16)]. The experiment exploits the conflict, in rodents, between the fear of open spaces and the desire to explore a new environment. The rat, placed at the center of the device, is forced to explore its environment. The open arms constitute an anxiety-producing environment, while this is not the case for the closed arms. The number of entries into all of the arms, the number of entries into the open arms, the number of entries into the closed arms, the time spent in the open arms, and the latency of entry into the first open arm constitute parameters reflecting the degree of anxiety of the animal.
# The elevated cross maze, made of wood, consists of four branches at 90° to one another. The two open branches (45×10 cm) and the two closed branches (45×10 cm, surrounded by wood plates over a height of 40 cm) are arranged opposite one another. The central square measures 10×10 cm. The open branches are illuminated by a white light with an intensity of 500 lx. The elevated cross maze is located 50 cm from the ground.
# The observations took place at between 9 and 11 o'clock in the morning in order to minimize the influence of the circadian rhythm. Before each passage through the elevated cross maze, the animal is placed for 10 minutes in an open field in order to stimulate its exploratory behavior. It is then placed in the central square of the elevated cross maze, and observed for 5 minutes. The cross maze is washed with 95% ethanol (v/v) between two passages so as to remove odors.
# The animals receive their respective treatment intraperitoneally one-half hour before being placed in the open field.
# Wistar rat [5] = assay: Light/dark box test; format: in vivo; details: for time spent in the familiar compartment / time spent in the unfamiliar, aversive compartment: p<0.05, n=12
# Source text: The light/dark tests are based on the innate aversion of rodents for strongly illuminated environments and on their spontaneous exploratory behavior in response to mild stress factors such as a new environment and light. The light/dark box device enables the exploratory behavior of the rodent to be studied with regard to an unfamiliar aversive compartment (strongly illuminated with white light) after habituation in a non-aversive compartment (dark), which then becomes familiar [BOURIN and HASCOET, 2003 (17)]. Classic anxiolytics can be detected by using this device.
# The light/dark box measures 65×49×35 cm (h×L×l) and is separated into two identical compartments by a plate with three 8×8-cm doors. The ground is covered with sawdust. Each rat is placed for 24 hours in the rear compartment of the box, and the doors communicating with the front compartment are made inaccessible. The rear compartment thus becomes the familiar compartment. The animal is fed and hydrated ad libitum. On the day of the test, the rat, after treatment, is again placed in the familiar compartment and the doors communicating with the front compartment (unfamiliar) are made accessible so that the animal can freely explore the environment. The unfamiliar compartment is made aversive by illumination with white light having an intensity of 1500 lx. The animals are observed for 10 minutes and the time spent in each of the compartments is measured.
# The animals receive their respective treatments intraperitoneally one-half hour before the communication between the familiar compartment and the unfamiliar compartment is opened.
# [6] = EP 0714910; cited from earlier work
# rat [7] = assay: in vivo behavioral tests in the rat; details: this application
# [8] = vehicle animals compared with animals treated 1 mg/kg intraperitoneally, n=15
# [9] = vehicle animals compared with animals treated 1 mg/kg intraperitoneally
# [10] = 0.5 mg/kg i.p. versus diazepam 1 mg/kg i.p.
# [11] = 0.5 mg/kg intraperitoneally, Wistar rat
# [12] = vehicle animals compared with animals treated 0.5 mg/kg intraperitoneally, n=15
# [13] = vehicle animals compared with animals treated 0.5 mg/kg intraperitoneally
# Sequence of angiotensin-I converting enzyme (P12821 30-1306): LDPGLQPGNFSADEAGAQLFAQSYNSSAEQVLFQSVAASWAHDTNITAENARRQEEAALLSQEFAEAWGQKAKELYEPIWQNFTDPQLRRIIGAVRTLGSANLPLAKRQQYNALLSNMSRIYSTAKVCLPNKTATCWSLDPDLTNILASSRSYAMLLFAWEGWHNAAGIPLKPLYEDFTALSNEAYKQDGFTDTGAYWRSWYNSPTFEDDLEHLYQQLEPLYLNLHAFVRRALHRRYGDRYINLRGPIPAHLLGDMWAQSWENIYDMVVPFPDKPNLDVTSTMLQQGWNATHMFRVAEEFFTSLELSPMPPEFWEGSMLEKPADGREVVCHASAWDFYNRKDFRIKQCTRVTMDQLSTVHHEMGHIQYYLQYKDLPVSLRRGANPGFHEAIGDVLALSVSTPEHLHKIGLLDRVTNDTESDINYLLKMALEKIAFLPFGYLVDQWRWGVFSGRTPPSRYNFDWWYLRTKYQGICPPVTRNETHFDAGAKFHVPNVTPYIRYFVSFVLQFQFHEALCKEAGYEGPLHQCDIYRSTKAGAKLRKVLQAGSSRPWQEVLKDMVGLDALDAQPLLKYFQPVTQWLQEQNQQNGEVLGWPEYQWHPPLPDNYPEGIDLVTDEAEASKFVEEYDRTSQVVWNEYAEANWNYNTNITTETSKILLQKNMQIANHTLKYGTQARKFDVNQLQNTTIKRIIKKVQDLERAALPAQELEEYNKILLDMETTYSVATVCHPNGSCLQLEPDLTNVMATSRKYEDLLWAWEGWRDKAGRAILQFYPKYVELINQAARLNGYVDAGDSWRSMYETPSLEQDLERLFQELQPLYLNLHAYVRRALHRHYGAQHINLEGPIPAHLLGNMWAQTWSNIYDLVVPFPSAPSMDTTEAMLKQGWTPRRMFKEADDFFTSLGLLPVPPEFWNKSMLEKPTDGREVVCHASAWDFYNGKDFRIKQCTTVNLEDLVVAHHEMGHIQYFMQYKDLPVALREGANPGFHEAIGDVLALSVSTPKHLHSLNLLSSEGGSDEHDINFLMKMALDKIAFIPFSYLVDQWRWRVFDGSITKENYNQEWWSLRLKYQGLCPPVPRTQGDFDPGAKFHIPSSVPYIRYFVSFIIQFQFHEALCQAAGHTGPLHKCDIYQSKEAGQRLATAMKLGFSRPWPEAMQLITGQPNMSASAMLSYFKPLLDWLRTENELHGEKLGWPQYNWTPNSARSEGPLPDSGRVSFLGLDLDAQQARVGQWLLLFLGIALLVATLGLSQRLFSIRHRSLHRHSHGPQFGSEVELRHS
molecule,measurement,setting,value
"194-199: αs1-casein peptide 194-199 (TTMPLW; UniProt P02662 209-214, looked up, fragment)",angiotensin-I converting enzyme inhibition,[1],angiotensin-I converting enzyme inhibitors
"90-95: αs1-casein peptide 90-95 (RYLGYL; UniProt P02662 105-110, looked up, fragment) [reference compound]",in vitro opiate activity,[2],demonstrated in vitro opiate activity
"91-99: peptide 91-99 derived from decapeptide, not containing arginine 100 (YLGYLEQLL; UniProt P02662 106-114, looked up, fragment)",anxiolytic properties,rat [3],show anxiolytic properties
"91-97: peptide 91-97 derived from decapeptide, not containing arginine 100 (YLGYLEQ; UniProt P02662 106-112, looked up, fragment)",anxiolytic properties,rat [3],show anxiolytic properties
"CN1C(=O)CN=C(c2ccccc2)c2cc(Cl)ccc21 [diazepam, reference compound]",number of entries into the open arms,Wistar rat [4]; [8],significantly lower
same,time spent in the open arms,Wistar rat [4]; [8],significantly lower
same,time spent in the familiar compartment,Wistar rat [5]; [9],increases significantly
same,"time spent in the unfamiliar, aversive compartment",Wistar rat [5]; [9],significantly lower
"α-casozepine: αs1-casein fragment 91-100, decapeptide from αs1-casein tryptic hydrolysate (YLGYLEQLLR; UniProt P02662 106-115, looked up, fragment)",anxiolytic activity,[6],original anxiolytic activity
"90-96: αs1-casein peptide 90-96 (RYLGYLE; UniProt P02662 105-111, looked up, fragment) [reference compound]",in vitro opiate activity,[2],demonstrated in vitro opiate activity
"Tyr-Leu-Gly-Tyr-Leu (YLGYL; listed as Bos taurus) [αs1-casein fragment 91-95, Pentapeptide corresponding to positions 91-95 of αs1-casein]",difference versus diazepam in the elevated cross maze,Wistar rat [4]; [10],No significant difference
same,number of entries into all of the arms (exploratory activity),"Wistar rat [4]; 0.5 mg/kg intraperitoneally one-half hour before open field, compared between treatments, n=15",not significantly different
same,action in the elevated cross maze test,Wistar rat [4]; [11],"an action similar to that of diazepam, i.e. an increase in the exploration of anxiety-producing zones"
same,number of entries into the open arms,Wistar rat [4]; [12],significantly lower
same,time spent in the open arms,Wistar rat [4]; [12],significantly lower
same,difference versus diazepam in the light/dark box,Wistar rat [5]; [10],No significant difference
same,action in the light/dark box test,Wistar rat [5]; [11],anxiolytic-type action similar to that of diazepam
same,time spent in the familiar compartment,Wistar rat [5]; [13],increases significantly
same,"time spent in the unfamiliar, aversive compartment",Wistar rat [5]; [13],significantly lower
same,anxiolytic properties,rat [7],possible to demonstrate the anxiolytic properties
same,in vitro opiate activity,[2],practically inactive
"91-98: peptide 91-98 derived from decapeptide, not containing arginine 100 (YLGYLEQL; UniProt P02662 106-113, looked up, fragment)",anxiolytic properties,rat [3],show anxiolytic properties
"YLGYLE [91-96, Hexapeptide corresponding to positions 91-96 of αs1-casein]",anxiolytic properties,rat [7],possible to demonstrate the anxiolytic properties
same,in vitro opiate activity,[2],practically inactive
